pIC50: −log10 of the molar value. Where a name gives a salt, the structure may show the parent alone.
Key:
[1] = tested on: JAK1 and JAK3 kinases; assay: Ramos B-cell line stimulated with IL-4, CD23 upregulation (FACS); format: cell-based, human; conditions: Ramos B cells, IL-4 50 units/mL, 20-24 hours, CD23 staining; read-out: Example 3 IC50
Protocol: One means of assaying for JAK inhibition is detection of the effect of compounds I and II on the upregulation of downstream gene products. In the Ramos/IL4 assay, B-cells are stimulated with the cytokine Interleukin-4 (IL-4) leading to the activation of the JAK/Stat pathway through phosphorylation of the JAK family kinases, JAK1 and JAK3, which in turn phosphorylate and activate the transcription factor Stat-6. […] Twenty to 24 hours post stimulation, cells are stained for upregulation of CD23 and analyzed using flow cytometry (FACS). […] An exemplary assay of this type is described in greater detail below. B-cells stimulated with cytokine Interleukin-4 (IL-4) activate the JAK/Stat pathway through phosphorylation of the JAK family kinases, JAK-1 and JAK-3, which in turn phosphorylate and activate the transcription factor Stat-6. […] To study the effect of inhibitors on the JAK family kinases, human Ramos B cells are stimulated with human IL-4. The Ramos B-cell line was acquired from [NT] No. CRL-1596). The cells were cultured in RPMI 1640 (Cellgro, MediaTech, Inc., Herndon, Va., Cat No. 10-040-CM) with 10% fetal bovine serum (FBS), heat inactivated (JRH Biosciences, Inc, Lenexa, Kans., Cat No. 12106-500M) according to ATCC propagation protocol. Cells were maintained at a density of 3.5×10^5. The day before the experiment, Ramos B-cells were diluted to 3.5×10^5 cells/mL to ensure that they were in a logarithmic growth phase. Cells were spun down and suspended in RPMI with 5% serum. 5×10^4 cells were used per point in a 96-well tissue culture plate. Cells were pre-incubated with compound or DMSO (Sigma-Aldrich, St. Louis, Mo., Cat No. D2650) vehicle control for 1 hour in a 37° C. incubator. Cells were then stimulated with IL-4 (Peprotech Inc., Rocky Hill, N.J., Cat No. 200-04) for a final concentration of 50 units/mL for 20-24 hours. Cells were then spun down and stained with anti-CD23-PE(BD Pharmingen, San Diego, Calif., Cat No. 555711) and analyzed by FACS. Detection was performed using a BD LSR I System Flow Cytometer, purchased from Becton Dickinson Biosciences of San Jose, Calif.

[2] = tested on: primary human T-cells; assay: Primary human T-cell proliferation assay stimulated with IL-2 (CellTiter-Glo); format: cell-based; conditions: primary human T-cells, IL-2, 72 hours, ATP readout; read-out: Example 4 IC50
Description: In this assay, primary human T-cells derived from peripheral blood and pre-activated through stimulation of the T-cell receptor and CD28, proliferate in culture in response to the cytokine Interleukin-2 (IL-2). This proliferative response is dependent on the activation of JAK1 and JAK3 tyrosine kinases, which phosphorylate and activate the transcription factor Stat-5. […] A reduction in cell proliferation compared to control conditions is indicative of inhibition of the JAK kinase pathway. An exemplary assay of this type is described in greater detail below.
Primary human T-cells derived from peripheral blood and pre-activated through stimulation of the T-cell receptor and CD28, proliferate in vitro in response to the cytokine Interleukin-2 (IL-2). This proliferative response is dependent on the activation of JAK-1 and JAK-3 tyrosine kinases, which phosphorylate and activate the transcription factor Stat-5.
Human primary T cells were prepared as follows. […] The lymphocytes at the serum: ficoll interface were recovered and washed twice with 5 volumes of PBS. […] The primary T-cells were stimulated for 3-4 days, then transferred to a fresh flask and maintained in RPMI with 10% FBS and 40 U/mL IL-2.
Primary T-cells were washed twice with PBS to remove the IL-2 and resuspended in Yssel's medium at 2×10^6 cells/mL. 50 μL of cell suspension containing 80 U/mL IL-2 was added to each well of a flat bottom 96 well black plate. For the unstimulated control, IL-2 was omitted from the last column on the plate. […] 50 μL of 2× compound was added per well in duplicate and the cells were allowed to proliferate for 72 hours at 37° C.
Proliferation was measured using CellTiter-Glo® Luminescent Cell Viability Assay (Promega), which determines the number of viable cells in culture based on quantitation of the ATP present, as an indicator of metabolically active cells. The substrate was thawed and allowed to come to room temperature. After mixing the Cell Titer-Glo reagent and diluent together, 100 μL was added to each well. […]

[3] = tested on: JAK/Stat pathway; assay: U937 IFNγ ICAM1 FACS assay; format: cell-based, human; conditions: U937 cells, IFNγ 10 ng/mL, 18-24 hours, ICAM-1 expression; read-out: Example 6 IC50
Protocol: U937 human monocytic cells up-regulate ICAM-1 (CD54) surface expression in response to a variety of different stimuli. Therefore, using ICAM-1 expression as readout, compound effects on different signaling pathways can be assessed in the same cell type. IFNγ up-regulates ICAM-1 through activation of the JAK/Stat pathway. In this example, the up-regulation of ICAM-1 by IFNγ was assessed.
U937 cells were grown in 10% RPMI. The cells were then plated at a concentration of 100,000 cells per 160 μL in 96 well flat bottom plates. […] Then 4 μL of test compound was transferred to 76 μL of 10% RPMI resulting in a 10× solution (100 μM test compound, 5% DMSO). For control wells, 4 μL of DMSO was diluted into 76 μL 10% RPMI.
The assay was performed in duplicate with 8 points (8 3-fold dilution concentrations from […]) and with 4 wells of DMSO only (control wells) under stimulated conditions and 4 wells of DMSO only under unstimulated conditions.
The diluted compound plate was mixed 2× using a multimek (Beckman Coulter of Brea, Calif.) and then 20 μL of the diluted compounds was transferred to the 96 well plate containing 160 μL of cells, which were then mixed again twice at low speeds. The cells and compounds were then pre-incubated for 30 minutes at 37° C. with 5% CO2.
The 10× stimulation mix was made by preparing a 100 ng/mL solution of human IFNγ in 10% RPMI. […] The cells were kept under conditions for stimulation for 18-24 hours at 37° C. with 5% CO2.
The cells were transferred to a 96 well round bottom plate for staining and then kept on ice for the duration of the staining procedure. Cells were spun down at 1000 rpm for 5 minutes at 4° C., following which the supernatant was removed. Following removal of the supernatant, 1 μL APC conjugated mouse anti-human ICAM-1 antibody was added per 100 μL FACS buffer. The cells were then incubated on ice in the dark for 30 minutes. Following incubation, 150 μL of FACS buffer was added and the cells were centrifuged at 1000 rpm for 5 minutes at 4° C., following which the supernatant was removed. […]
Both % live cells and ICAM-1 expression was analyzed. […]

C#CCOc1ccc(Nc2nc(Nc3ccc(C)c(S(=O)(=O)NC(=O)CC)c3)ncc2F)cc1 [VI, 5-Fluoro-N2-[4-methyl-3-(N-propionylaminosulfonyl)phenyl]-N4-[4-(2-propynyloxy)phenyl]-2,4-pyrimidinediamine Arginine Salt]
pIC50 [1]: 6.98 | pIC50 [2]: 6.58 | pIC50 [3]: 6.37

Source: patent US8497279B2, “Treatment for discoid lupus” (Rigel Pharmaceuticals, Inc., priority 2011, dated 2013)
